Data from ChEMBL document CHEMBL5375968, “Peptide TK-HR from the Skin of Chinese Folk Medicine Frog Hoplobatrachus Rugulosus Accelerates Wound Healing via the Activation of the Neurokinin-1 Receptor” (J Med Chem, 2023).
Activity calls are given as the source filed them. No cut-off for these calls is given here.

What was measured:
NIH3T3 = assay: Effect on cell migration in mouse 3T3 cells at 20 uM incubated upto 48 hrs by scratch healing assay; format: functional, cell-based
RAW264.7 [1] = assay: Induction of phagocytosis in mouse RAW264.7 cells cultured with Escherichia coli ATCC 25922 assessed as number of engulfed bacteria at 5 uM incubated for 24 hrs followed by bacterial exposure measured after 1 hr by plate counting method (reference value: 225); format: functional; settings: time 25 hrs
Splenic fibroblast [2] = assay: Effect on TGF-1beta production in human […] fibroblasts at 5 to 40 uM incubated for 24 hrs by ELISA; format: functional, cell-based; settings: dose 5-40 µM
HUVEC [3] = assay: Induction of cell migration in Mitomycin C-treated HUVEC cells assessed as healing rate at 20 uM measured after 48 hrs by scratch healing assay (reference value: 51.6 %); format: functional, Homo sapiens
RAW264.7 [4] = assay: Induction of phagocytosis in mouse RAW264.7 cells assessed as increase in neutral red dye uptake by measuring optical density at 540 nm at 10 uM incubated for 24 hrs followed by dye addition measured after 4 hrs by absorbance based assay (reference value: 0.073); format: functional; settings: time 28 hrs
[5] = Toxicity in BALB/c mouse model of full-thickness wounds assessed as inflammatory foci in kidney at 200 ug/ml, TOP bid measured upto 8 days by H and E staining based analysis; format: tissue-based; settings: in vivo, topical_or_ocular, 192 h, dose 200 µg/ml, time < 8 day
Mus musculus [6] = species: Mus musculus; assay: Induction of wound healing in BALB/c mouse model of full-thickness wounds assessed as increase in phosphorylated Smad3 level in wound skin at 50 to 200 ug/ml, TOP bid measured after 4 days by Western blot analysis; format: functional; settings: dose 50-200 µg/ml, time 4.0 day
RAW264.7 [7] = assay: Induction of phagocytosis in mouse RAW264.7 cells assessed as increase in neutral red dye uptake by measuring optical density at 540 nm at 5 uM incubated for 24 hrs followed by dye addition measured after 4 hrs by absorbance based assay (reference value: 0.073); format: functional; settings: time 28 hrs
Mus musculus [8] = species: Mus musculus; assay: Induction of wound healing in BALB/c mouse model of full-thickness wounds assessed as increase in recruitment of M2-type macrophages in wound skin at 50 ug/ml, TOP bid measured after 4 days by IHC analysis; format: functional; settings: dose 50.0 µg/ml, time 4.0 day
RAW264.7 [9] = assay: Induction of phagocytosis in mouse RAW264.7 cells cultured with Escherichia coli ATCC 25922 assessed as number of surviving engulfed bacteria at 2.5 uM incubated for 24 hrs followed by bacterial exposure for 1 hr and further treated with gentamycin for 2 hrs by plate counting method (reference value: 37); format: functional; settings: time 27 hrs
RAW264.7 [10] = assay: Upregulation of phosphorylated Smad2 level in mouse RAW264.7 cells at 2.5 to 20 uM incubated for 4 hrs by Western blot analysis; format: functional, cell-based; settings: dose 2.5-20 µM
HaCaT [11] = assay: Induction of cell migration in human HaCaT cells assessed as formation of cytoplasmic protrusions at 20 uM measured after 24 hrs by immunofluorescence microscopy; format: functional, cell-based
RAW264.7 [12] = assay: Upregulation of phosphorylated ERK level in mouse RAW264.7 cells at 2.5 to 20 uM incubated for 4 hrs by Western blot analysis; format: functional, cell-based; settings: dose 2.5-20 µM
HUVEC [13] = assay: Induction of cell migration in HUVEC cells assessed as healing rate at 20 uM measured after 24 hrs by scratch healing assay (reference value: 30.2 %); format: functional, Homo sapiens
Mus musculus [14] = species: Mus musculus; assay: Induction of wound healing in BALB/c mouse model of full-thickness wounds assessed as increase in epidermal layer re-constuction at 50 ug/ml, TOP bid measured after 8 days by H and E staining based analysis; format: functional; settings: dose 50.0 µg/ml, time 8.0 day
RAW264.7 [15] = assay: Upregulation of phosphorylated JNK level in mouse RAW264.7 cells at 2.5 to 20 uM incubated for 4 hrs by Western blot analysis; format: functional, cell-based; settings: dose 2.5-20 µM
Mus musculus [16] = species: Mus musculus; assay: Induction of wound healing in BALB/c mouse model of full-thickness wounds assessed as dense arrangement of collagen fibers at 50 to 200 ug/ml, TOP bid measured after 8 days by Masson's Trichome staining based analysis; format: functional; settings: dose 50-200 µg/ml, time 8.0 day
HaCaT [17] = assay: Induction of cell migration in Mitomycin C-treated human HaCaT cells assessed as healing rate at 20 uM measured after 48 hrs by scratch healing assay (reference value: 25.7 %); format: functional
Neutrophil [18] = assay: Induction of wound healing in BALB/c mouse model of full-thickness wounds assessed as increase in number of neutrophil infiltration in wound skin at 50 ug/ml, TOP bid measured after 2 days by IHC analysis; format: functional, cell-based; settings: dose 50.0 µg/ml, time 2.0 day
[19] = Induction of wound healing in BALB/c mouse model of full-thickness wounds at 200 ug/ml, TOP bid measured after 6 days (reference value: 71.7 %); format: functional; settings: dose 200 µg/ml, time 6 day
Neutrophil [20] = assay: Induction of chemotaxis in BALB/c mouse neutrophils assessed as increase in ratio of cell polarization at 40 uM measured for 15 mins by Zigmond-chamber based microscopy (reference value: 14.6 %); format: functional; settings: 0.25 h
Mus musculus [21] = species: Mus musculus; assay: Induction of wound healing in BALB/c mouse model of full-thickness wounds assessed as decrease in TNF-alpha level in wound skin at 50 ug/ml, TOP bid measured after 4 days by ELISA; format: functional; settings: dose 50.0 µg/ml, time 4.0 day
HUVEC [22] = assay: Angiogenic activity in HUVEC cells assessed as increase in tube formation at 5 uM measured for 4 hrs by microscopic analysis relative to control; format: functional, Homo sapiens
HUVEC [23] = assay: Induction of cell migration in Aprepitant-treated HUVEC cells assessed as healing rate at 20 uM measured after 24 hrs by scratch healing assay (reference value: 30.2 %); format: functional, Homo sapiens
Mus musculus [24] = species: Mus musculus; assay: Induction of wound healing in BALB/c mouse model of full-thickness wounds assessed as increase in recruitment of M1-type macrophages in wound skin at 50 ug/ml, TOP bid measured after 2 days by IHC analysis; format: functional; settings: dose 50.0 µg/ml, time 2.0 day
Mus musculus [25] = species: Mus musculus; assay: Induction of wound healing in BALB/c mouse model of full-thickness wounds assessed as increase in phosphorylated Smad2 level in wound skin at 50 to 200 ug/ml, TOP bid measured after 4 days by Western blot analysis; format: functional; settings: dose 50-200 µg/ml, time 4.0 day
Splenic fibroblast [26] = assay: Effect on cell proliferation in human […] fibroblasts at 5 to 40 uM incubated for 24 hrs by MTT assay; format: functional, cell-based; settings: dose 5-40 µM
HUVEC [27] = assay: Induction of cell migration in HUVEC cells assessed as actin stress fiber formation at peripheral side of cytoplasmic membrane at 20 uM measured after 24 hrs by immunofluorescence microscopy; format: functional, cell-based; settings: Homo sapiens
RAW264.7 [28] = assay: Upregulation of phosphorylated Smad2 level in Aprepitant-treated mouse RAW264.7 cells at 2.5 to 20 uM incubated for 4 hrs by Western blot analysis; format: functional, cell-based; settings: dose 2.5-20 µM
[29] = Induction of wound healing in BALB/c mouse model of full-thickness wounds at 50 ug/ml, TOP bid pretreated with Aprepitant for 2 hrs followed by compound administration measured after 2 days (reference value: 35.3 %); format: functional; settings: dose 50 µg/ml, time 2 day
RAW264.7 [30] = assay: Effect on total p38 level in mouse RAW264.7 cells at 2.5 to 20 uM incubated for 4 hrs by Western blot analysis; format: functional, cell-based; settings: dose 2.5-20 µM
Mus musculus [31] = species: Mus musculus; assay: Induction of wound healing in BALB/c mouse model of full-thickness wounds assessed as parallel alignment of collagen fibers at 50 to 200 ug/ml, TOP bid measured after 8 days by Masson's Trichome staining based analysis; format: functional; settings: dose 50-200 µg/ml, time 8.0 day

Substance: H-KPNPDRFYGLM-NH2
- Activity (NIH3T3): inactive
- Activity (RAW264.7 [1]): 302
- Activity (Splenic fibroblast [2]): inactive
- Activity (HUVEC [3]): 78.7%
- OD (RAW264.7 [4]): 0.107
- Activity [5]: Non-Toxic
- Activity (Mus musculus [6]): Active
- OD (RAW264.7 [7]): 0.103
- Activity (Mus musculus [8]): Active
- Activity (RAW264.7 [9]): 30
- Activity (RAW264.7 [10]): Active
- Activity (HaCaT [11]): Active
- Activity (RAW264.7 [12]): Active
- Activity (HUVEC [13]): 46.7%
- Activity (Mus musculus [14]): Active
- Activity (RAW264.7 [15]): Active
- Activity (Mus musculus [16]): Active
- Activity (HaCaT [17]): 53%
- Activity (Neutrophil [18]): Active
- Activity [19]: 100%
- Activity (Neutrophil [20]): 50.4%
- Activity (Mus musculus [21]): Active
- Activity (HUVEC [22]): 85.3%
- Activity (HUVEC [23]): 35.9%
- Activity (Mus musculus [24]): Active
- Activity (Mus musculus [25]): Active
- Activity (Splenic fibroblast [26]): inactive
- Activity (HUVEC [27]): Active
- Activity (RAW264.7 [28]): inactive
- Activity [29]: 38.7%
- Activity (RAW264.7 [30]): inactive
- Activity (Mus musculus [31]): Active
